Results as given in patent publication US9598460B2 (UNIVERSITY OF NOTRE DAME DU LAC, priority 2011, dated 2017).

Assays:
[1] = target: nucleotide binding site of chimeric human/mouse Rituximab; experiment: Sandwich ELISA binding of biotin-linked indole-3-butyric acid to antigen-captured antibody; details: fit of normalized fluorescent intensity, read-out: Kd (binding affinity)
Description: (§1) FIG. 2B illustrates a sandwich ELISA, in accordance with various embodiments;
(§2) HRP-streptavidin was used to bind the biotin, and a fluorescent substrate was used to quantify the amount of indole-3-butyric acid that was present on the surface.

[2] = target: nucleotide binding site of rat anti-DNP antibody; experiment: as above; details: fit of normalized fluorescent intensity, read-out: Kd (binding affinity)
Description: as §1, §2

[3] = target: nucleotide binding site of mouse anti-FITC antibody; experiment: as above; details: fit of normalized fluorescent intensity, read-out: Kd (binding affinity)
Description: as §1, §2

[4] = target: nucleotide binding site of three different antibodies; experiment: Sandwich ELISA, summary over three antibodies
Method: as §1, §2
Thus, the monovalent Kd values for the indole binding to the nucleotide binding site of three different antibodies ranged between 1-7 μM, showing a 7- to 50-fold enhancement in binding affinity over adenine.

O=C(O)CCCc1c[nH]c2ccccc12 [indole-3-butyric acid]
Kd [1]: 1700 nM
Kd [2]: 1270 nM
Kd [3]: 6410 nM
Kd ([4]; range over three different antibodies, read-out: monovalent Kd values): 1000 to 7000 nM
enhancement in binding affinity over adenine ([4]; relative to adenine): 7- to 50 fold
